The text below walks through data of a melting point compilation (Tetko et al.; mined from patent text by program, amines drawn as free bases though some values may be those of a salt).

In turn, `CCOC(=O)c1cc2c(C(F)(F)F)cc(CP(=O)(OCC)OCC)cc2n1C` came in with a melting point of 95 to 96.5 °C.

Molecule `CCOC(=O)c1c(Cn2cncn2)nc2sc3c(c2c1-c1cccc(OC)c1OC)CCCN3C(=O)OCc1ccccc1` yielded a melting point of 184 to 185 °C.

`O=C(OCCN1CCC(Nc2nc3ccccc3n2Cc2ccc(F)cc2)CC1)N1CCOCC1` displayed a melting point of 145 °C.

`CCN(CC)S(=O)(=O)c1cc(Cl)c(Cl)c(Cl)c1S` yielded a melting point of 96 to 99 °C.

The molecule `CSCc1cc(O)cc2cc(-c3ccc(O)cc3)oc12` registered a melting point of 188 to 190 °C.

`CCCCCc1c(CO)nc(C(C)C)c(CO)c1-c1ccc(F)cc1` came in with a melting point of 135 to 136 °C.

As to `C[C@@]1(NC(=O)c2cc3cccc4c3n2CCC4)C(=O)N(c2ccccc2F)c2ccccc21`, the melting point lay in the range of 194 to 195 °C.

With `N=C(Nc1ccc(CNC=Nc2cccs2)cc1)c1cccs1`, the melting point was in the range of 200 to 201 °C.

For the molecule `Cn1cnc(COc2nn3c(-c4ccccc4)nnc3c(Cl)c2N2CCCC2)n1`, the melting point is 198 to 199 °C.

The molecule `COCC1CN(c2ccc(C3CCC(OC)CC3)cc2)C(=O)O1` (stereo not drawn) registered a melting point of 82 to 83 °C.

Molecule `O=C(O)CCC(=O)c1ccc(OC2CCCCC2)cc1` registered a melting point of 190 to 192 °C.

For the molecule `COc1cc(O)ccc1/C=C/C(=O)CC(=O)CCc1ccc(O)cc1`, the melting point was in the range of 131 to 135 °C.

Consider `COc1ccc2cc([C@H](C)C(=O)NOCC(=O)OC(C)(C)C)ccc2c1`, for which the melting point was in the range of 82 to 84 °C.

Turning to `CCCC(=O)NCCc1cc(-c2cccc(C(=O)OC)c2)cc2ccc(OC)cc12`, the melting point is 86 to 88 °C.

The molecule `C[C@@H]1C(=O)N(C(=O)N2CCOCC2)Cc2ccccc2[C@@H]1C` (relative stereo) came in with a melting point of 184 to 185 °C.

Molecule `O=C(Nc1cc2ccccc2cn1)c1ncccc1NCc1ccncc1` had a melting point of 168 °C.

Regarding `CCNC1=C(c2ccc(O)cc2)C(=O)c2cc(O)ccc21`, the melting point came to 250 °C.

On to `O=C(NC1CCOCC1)c1cnccc1C(F)(F)F`, for which the melting point was 149 to 150 °C.

For the molecule `CC(=O)N1CCC(C(=O)c2cc(F)ccc2F)CC1`, the melting point is 82 to 87 °C.

In turn, `COc1cccc(CC(=S)N2CCCCC2)c1` yielded a melting point of 55 to 56 °C.

`COc1ccc2c(c1)C(C1CCC1)=NCC2` yielded a melting point of 44 to 46 °C.

In turn, `CC(C)[C@H](NC(=O)OCc1ccccn1)C(=O)N[C@@H](Cc1ccccc1)C[C@H](O)[C@H](Cc1ccccc1)NC(=O)OCc1cncs1` returned a melting point of 166 to 168 °C.

Turning to `CCOC(=O)c1ncc2[nH]c3cccc(Cc4ccccc4)c3c2c1COC`, the melting point lay in the range of 160 to 168 °C.

For the molecule `CS(=O)(=O)N[C@@H]1CN2C(=O)N(c3cc(Cl)nc(Cl)c3)C(=O)[C@@]2(Cc2ccc(OC(F)(F)F)cc2)C1`, the melting point was determined as 207 °C.

Consider `CCOCCc1nc(NS(=O)(=O)c2cccc(Cl)c2C)sc1CN(C)C`, for which the melting point fell in the range of 152 to 153 °C.

For `O=C(CF)NCc1ccc2ccn(C3CCN(CCc4ccc(F)cc4)CC3)c2c1`, the melting point lay in the range of 106 to 108 °C.

In the case of `C=CC(=O)OC(COc1ccc(C(=O)c2ccccc2)c(O)c1)COc1ccc(C(=O)c2ccccc2)c(O)c1`, the melting point fell in the range of 98 to 100 °C.

Regarding `N=C(N)NC(=O)OCCNC(=O)c1ccc2cc(C(=O)NC(=N)N)ccc2c1`, the melting point was 205 °C.

`COC(=O)C=Cc1cc(NC2CCN(Cc3ccccc3)CC2)ccc1C` had a melting point of 140 to 142 °C.

`Clc1ccc2nc(-c3ccccc3)cc(CCC3CCCNC3)c2c1` (stereo not drawn): the melting point is above 260 °C.

Take `Cn1nc(-c2ccc3ccccc3c2)n(C)c1=S`: the melting point was 173 to 175 °C.

`COc1cc2c(N)nc(N3CCN(c4nc5ccccc5s4)CC3)nc2c(OC)c1OC` gave a melting point above 250 °C.

Molecule `O=C(O)CC(CCCCNS(=O)(=O)c1ccc(Cl)cc1)CCCc1cccnc1` (stereo not drawn) yielded a melting point of 95 to 97 °C.

As for `Cc1cc2ccccc2nc1NN`, the melting point was determined as 128 °C.

On to `CCCCCCCCCCCCCCOc1ccc(C(=O)OCC)o1`, for which the melting point was 39 to 40 °C.

For `CC(=O)Nc1cccc(/C=C/C(=O)N2CC(CCl)c3ccc([N+](=O)[O-])cc32)c1` (stereo not drawn), the melting point lay within 229 to 230 °C.

The molecule `CSc1ccc(C(=N)Nc2ccc(F)cc2)cc1` returned a melting point of 145 to 147 °C.

The molecule `O=C(OCC(F)(F)F)c1ncn2c1CN=C(c1ccccc1)c1cc(Br)ccc1-2` yielded a melting point of 202 to 204 °C.

As for `CCCn1nc(C2CC2)c(C(=O)OCC)c1Cc1ccc(-c2ccccc2S(=O)(=O)NC(C)(C)C)cc1`, the melting point lay in the range of 165 to 168 °C.

Take `CC(c1ccc(N(C)C)cc1)c1ccc(N(C)C)cc1`: the melting point amounted to 68 °C.

For the molecule `COc1cc(N)c(Cl)cc1C(=O)NC1C2CCN(CC2)C1CN1CCCCC1` (stereo not drawn), the melting point fell in the range of 185 to 187 °C.

`N#Cc1cnn2c(-c3ccccc3)ccnc12` came in with a melting point of 230 to 232 °C.

On to `N#CC(C#N)(Cc1ccc(Cl)cc1)C1CCCCC1`, for which the melting point worked out at 108 °C.

As to `COCc1nc2c(N)nc3ccccc3c2n1Cc1ccccc1`, the melting point was 202 to 204 °C.

`CC(C)OC(=O)c1cc(N)c(F)c(F)n1` gave a melting point of 167 to 168 °C.

`CN1C(=N)C(=O)c2ccccc21`: the melting point lay within 99 to 102 °C.

Molecule `C=Cc1nc(C(C)C)c(Sc2cc(Cl)cc(Cl)c2)n1C` had a melting point of 124 to 125 °C.

For `CC(=O)Nc1ccc(N2C(=O)C3CCC2n2c(=O)n(-c4ccccc4)c(=O)n23)cc1` (stereo not drawn), the melting point fell in the range of 144 to 145 °C.

`CCOP(=O)(OCC)C(Nc1ccccn1)P(=O)(OCC)OCC`: the melting point was in the range of 63 to 66 °C.

`Nc1cc([N+](=O)[O-])c[nH]c1=O` came in with a melting point of 200 to 201 °C.

As for `C[C@@H](Oc1ccc2c(c1)N(C)C(=O)N(c1ccc(Cl)cc1)S2(=O)=O)C(=O)O`, the melting point was 85 to 95 °C.

`COc1cc(/C=C/c2ccc(F)cc2)cc(OC)c1` had a melting point of 46 to 48 °C.

`Cc1ccc(C(=O)c2cccc3c2CCCC3C(=O)O)cc1` (stereo not drawn) gave a melting point of 102 to 103 °C.

In the case of `COc1ccccc1N1CCN(CCNc2c(OC)cnn(C)c2=O)CC1`, the melting point is 144 to 148 °C.

As for `Nc1cccc(-n2c(=O)c3c(Cc4ccccc4)n[nH]c3c3cccnc32)c1`, the melting point was in the range of 277 to 279 °C.

`Cc1nc(N2CCC(CC3CC3)C2=O)sc1C(=O)NCc1ccc(F)cc1` (stereo not drawn) yielded a melting point of 153 to 155 °C.

The molecule `COc1cc(Cl)c(Nc2nc(C)ccc2S(=O)(=O)c2ccc(OCc3ccccc3OC)cc2)cc1F` gave a melting point of 62 to 64 °C.

On to `CC(=O)SCSc1cn(C)nn1`, for which the melting point lay in the range of 71 to 72 °C.

As to `O=C1CCC(N2Cc3c(OCc4ccc(CN5CCC(C(F)(F)F)CC5)cc4)cccc3C2=O)C(=O)N1` (stereo not drawn), the melting point was 178 to 180 °C.

Consider `CC(=O)Nc1cc2c(cc1[N+](=O)[O-])OC(C)(C)C1OC21` (stereo not drawn), for which the melting point is 156 to 158 °C.

As for `CCC(CC)Oc1cc(C)nc(Nc2c(C)cc(C)cc2C)c1C#N`, the melting point fell in the range of 105 to 107 °C.

On to `O=Cc1ccc(C(=O)Nc2ccc(OCC(F)(F)C(F)F)cc2)cc1`, for which the melting point worked out at 152 °C.

Molecule `CC(C)(C)CC(C)(C)NC(=O)C1=C(c2ccccc2)C(c2ccccc2)OC1=O` (stereo not drawn) returned a melting point of 110 to 111 °C.

`CC(CN1CCC(C#N)C1)NC(=O)c1c[nH]c2ncc(-c3nn(C)c4cc(Cl)ccc34)nc12` (stereo not drawn) yielded a melting point of 206 to 209 °C.

Take `N#Cc1cccnc1N1CCN(CC(=O)Nc2cc(F)cc(C(F)(F)F)c2)CC1`: the melting point lay within 108 to 110 °C.

As for `Cn1nnnc1SCc1ccccc1`, the melting point lay in the range of 48.5 to 49.5 °C.

`COc1cccc(C(=O)c2c(N)sc3c2CCN(Cc2ccccc2)C3)c1OC` gave a melting point of 172 to 173 °C.

The molecule `CCn1nc(C(F)(F)F)cc1NC(=O)C1C(C)=CC=CC1(C(N)=O)C(C)C` (stereo not drawn) had a melting point of 223 to 226 °C.

Molecule `COc1ccc2c(N)cccc2c1C(F)(F)F` came in with a melting point of 120 °C.

Molecule `O=C1CC(NCc2ccccc2)C(=O)N1Cc1ccccc1` (stereo not drawn) showed a melting point of 60 to 63 °C.

`O=c1c2ccc(Cl)cc2[nH]c2c(=O)n(CCO)nc(O)c12` showed a melting point of 377 to 378 °C.

As to `CCN(CC)CCOc1ccc(NC(=O)C#Cc2ccc(Cl)cc2Cl)cc1Cl`, the melting point is 98 to 100 °C.

The molecule `COC(=O)c1cc(NC(=O)c2ccccc2)c2cc(Cc3ccc(F)cc3)cnc2c1O` returned a melting point of 247 to 249 °C.

`Nc1nc(-c2cccnc2Cl)c(-c2cccnc2Cl)o1` came in with a melting point of 243 to 244 °C.

For `CCOC(=O)C(=CNc1cccc(C#N)c1)C(=O)OCC`, the melting point was in the range of 109 to 111 °C.

The molecule `CC(C)(C)c1ccc(NC(=O)Nc2ccc(Oc3cc(Cl)ncn3)cc2)cc1` returned a melting point of 111 to 112 °C.

`CN(CC(=O)O)C(=O)c1c(N)cccc1I` showed a melting point of 147 to 149 °C.

Molecule `CCCCOc1c(CNC(=O)OC(C)(C)C)n(CC2CC2)c(=O)c2ccc(C(N)=O)cc12` registered a melting point of 202 to 203 °C.

`COc1ccc2c(c1)C1=C(SCC3(CCN(CC(O)COc4ccc(C(C)(C)C)cc4)CC3)O1)C(=O)C2=O` (stereo not drawn) registered a melting point of 153 to 156 °C.

On to `CCCOc1ccccc1-c1nc2ncncc2c(=O)[nH]1`, for which the melting point fell in the range of 142 to 143 °C.

In turn, `CC1(C)[C@@H](CNC(=O)C2CCC(F)(F)CC2)CC[C@@]1(C)NCC(=O)N1C[C@@H](F)C[C@H]1C#N` had a melting point of 193 to 195 °C.

`CCOc1ccnc(F)c1N`: the melting point lay in the range of 76 to 77 °C.

With `N#CN1CCC(=C2c3ccccc3Oc3ccc(Cl)cc32)CC1`, the melting point lay in the range of 148 to 150 °C.

The molecule `O=C(O)[C@H]1CC[C@H](Nc2ncc3ncnc(Nc4ccc(F)c(Cl)c4)c3n2)CC1` came in with a melting point above 290 °C.

The molecule `COc1ccccc1COc1ccc(S(=O)(=O)c2ccc(C)nc2Nc2cc(OC)c(OC)cc2C)cc1` gave a melting point of 62 to 66 °C.

Molecule `C[C@H](Oc1ccc(-c2csc(S(N)(=O)=O)c2)cc1)[C@H](O)CCc1cccnc1` returned a melting point of 151 to 152 °C.

With `Cc1cc(C)c2cccc(OCc3c(Cl)ccc(S(=O)(=O)N4CCC[C@H]4C(=O)NCCCNC(=O)c4ccc(C=NN)cc4)c3Cl)c2n1`, the melting point lay in the range of 178 to 180 °C.

`COc1nc(C2CC2)nc(C(Cl)(Cl)Cl)n1` displayed a melting point of 49 to 51 °C.

As usually defined, the melting point is the temperature of the solid-liquid transition.
